Source: patent US5202315A, “Cephalosporin compounds” (Lucky, Ltd., priority 1989, dated 1993)
≈ marks a conversion by molar mass, not a printed value. Like-named read-outs stand apart in the source and are kept apart here.

Columns and labels:
[1] = In-vivo absorbency (plasma concentrations & pharmacokinetic parameters); set-up: species or system SD rat (male); conditions: plasma, SD male rat, iv 20 mg/kg, read-out: Plasma Conc.
[2] = as above; set-up: species or system SD rat (male); conditions: plasma, SD male rat, iv 20 mg/kg; for concentration at 1 h: 60 min; for concentration at 1 h / concentration at 2 h: read-out: Plasma Conc.; for concentration at 2 h: 120 min; for AUC / half-life: two compartment model; for half-life: rat, iv, 20 mg/kg
Text: The blood samples from the femoral vein of the rats were taken every hour after administration, and analyzed by bio-assay(agar well method).
Tested animal: SD male Rat (220~340 g)

[3] = tested on: Pseudomonas aeruginosa ATCC 25619; assay: Antibacterial activity, MIC; assay type: cell-based; conditions: ATCC25619, ATCC 25619, agar two-fold dilution, 37° C., 20 hours, read-out: MIC
Experimental: (§1) Also, the in vitro antibacterial activity was determined by the by a two-fold dilution method as described below:
(§2) That is, the two-fold serial dilutions of the compound were made dispersed in Muller-Hinton agar medium. 2 μl of standard test strain which had the 10^7 CFU per ml was inoculated on the medium, and was incubated at 37° C. for 20 hours.

[4] = tested on: Klebsiella pneumoniae ATCC 10031; assay: Antibacterial activity, MIC; assay type: cell-based; conditions: ATCC10031, ATCC 10031, agar two-fold dilution, 37° C., 20 hours, read-out: MIC
Experimental: as §1, §2

[5] = tested on: Pseudomonas aeruginosa ATCC 10145; assay: Antibacterial activity, MIC; assay type: cell-based; conditions: ATCC10145, ATCC 10145, agar two-fold dilution, 37° C., 20 hours, read-out: MIC
Experimental: as §1, §2

[6] = tested on: Escherichia coli ATCC 10536; assay: Antibacterial activity, MIC; assay type: cell-based; conditions: ATCC10536, agar two-fold dilution, 37° C., 20 hours
Experimental: as §1, §2

[7] = tested on: Serratia marcescens ATCC 27117; assay: Antibacterial activity, MIC; assay type: cell-based; conditions: ATCC27117, ATCC 27117, agar two-fold dilution, 37° C., 20 hours, read-out: MIC
Experimental: as §1, §2

[8] = tested on: Shigella sonnei ATCC 11060; assay: Antibacterial activity, MIC; assay type: cell-based; conditions: ATCC11060, ATCC 11060, agar two-fold dilution, 37° C., 20 hours, read-out: MIC
Experimental: as §1, §2

[9] = tested on: Salmonella typhimurium ATCC 14028; assay: Antibacterial activity, MIC; assay type: cell-based; conditions: Salmonella enterica; ATCC 14028; agar two-fold dilution, 37° C., 20 hours; read-out: MIC
Experimental: as §1, §2

[10] = tested on: Streptococcus faecalis ATCC 29212; assay: Antibacterial activity, MIC; assay type: cell-based; conditions: Enterococcus faecalis, ATCC29212; ATCC 29212; agar two-fold dilution, 37° C., 20 hours; read-out: MIC
Experimental: as §1, §2

[11] = tested on: Bacillus cereus ATCC 11778; assay: Antibacterial activity, MIC; assay type: cell-based; conditions: ATCC11778, ATCC 11778, agar two-fold dilution, 37° C., 20 hours, read-out: MIC
Experimental: as §1, §2

[12] = tested on: Proteus mirabilis ATCC 25933; assay: Antibacterial activity, MIC; assay type: cell-based; conditions: ATCC25933, ATCC 25933, agar two-fold dilution, 37° C., 20 hours, read-out: MIC
Experimental: as §1, §2

[13] = tested on: Escherichia coli ATCC 25922; assay: Antibacterial activity, MIC; assay type: cell-based; conditions: ATCC25922, agar two-fold dilution, 37° C., 20 hours
Experimental: as §1, §2

[14] = tested on: Micrococcus luteus ATCC 9341; assay: Antibacterial activity, MIC; assay type: cell-based; conditions: ATCC9341, ATCC 9341, agar two-fold dilution, 37° C., 20 hours, read-out: MIC
Experimental: as §1, §2

[15] = tested on: Proteus vulgaris ATCC 6059; assay: Antibacterial activity, MIC; assay type: cell-based; conditions: ATCC6059, ATCC 6059, agar two-fold dilution, 37° C., 20 hours, read-out: MIC
Experimental: as §1, §2

[16] = tested on: Pseudomonas aeruginosa ATCC 27853; assay: Antibacterial activity, MIC; assay type: cell-based; conditions: ATCC27853, ATCC 27853, agar two-fold dilution, 37° C., 20 hours, read-out: MIC
Experimental: as §1, §2

[17] = tested on: Staphylococcus aureus ATCC 10537; assay: Antibacterial activity, MIC; assay type: cell-based; conditions: ATCC10537, ATCC 10537, agar two-fold dilution, 37° C., 20 hours, read-out: MIC
Experimental: as §1, §2

[18] = tested on: Enterobacter cloacae ATCC 27508; assay: Antibacterial activity, MIC; assay type: cell-based; conditions: ATCC27508, ATCC 27508, agar two-fold dilution, 37° C., 20 hours, read-out: MIC
Experimental: as §1, §2

[19] = tested on: Staphylococcus epidermidis ATCC 12228; assay: Antibacterial activity, MIC; assay type: cell-based; conditions: ATCC12228, ATCC 12228, agar two-fold dilution, 37° C., 20 hours, read-out: MIC
Experimental: as §1, §2

[20] = tested on: Providencia rettgeri ATCC 9250; assay: Antibacterial activity, MIC; assay type: cell-based; conditions: ATCC9250, agar two-fold dilution, 37° C., 20 hours
Experimental: as §1, §2

[21] = tested on: Enterobacter aerogenes ATCC 29751; assay: Antibacterial activity, MIC; assay type: cell-based; conditions: Klebsiella aerogenes, ATCC29751; ATCC 29751; agar two-fold dilution, 37° C., 20 hours; read-out: MIC
Experimental: as §1, §2

[22] = tested on: Staphylococcus aureus ATCC 6538p; assay: Antibacterial activity, MIC; assay type: cell-based; conditions: ATCC6538P, ATCC 6538p, agar two-fold dilution, 37° C., 20 hours, read-out: MIC
Experimental: as §1, §2

[23] = tested on: Morganella morganii ATCC 8076h; assay: Antibacterial activity, MIC; assay type: cell-based; conditions: ATCC8076H, agar two-fold dilution, 37° C., 20 hours
Experimental: as §1, §2

[24] = tested on: Acinetobacter calcoaceticus ATCC 15473; assay: Antibacterial activity, MIC; assay type: cell-based; conditions: ATCC15473, ATCC 15473, agar two-fold dilution, 37° C., 20 hours, read-out: MIC
Experimental: as §1, §2

[25] = tested on: Shigella flexneri ATCC 11836; assay: Antibacterial activity, MIC; assay type: cell-based; conditions: ATCC11836, agar two-fold dilution, 37° C., 20 hours
Experimental: as §1, §2

[26] = tested on: Citrobacter freundii ATCC 8090; assay: Antibacterial activity, MIC; assay type: cell-based; conditions: ATCC8090, ATCC 8090, agar two-fold dilution, 37° C., 20 hours, read-out: MIC
Experimental: as §1, §2

Row | SMILES | concentration at 0.5 min [1] [ng/mL] | concentration at 2.5 min [1] [ng/mL] | concentration at 5 min [1] [ng/mL] | concentration at 10 min [1] [ng/mL] | concentration at 20 min [1] [ng/mL] | concentration at 40 min [1] [ng/mL] | concentration at 1 h [2] [ng/mL] | concentration at 2 h [2] [ng/mL] | AUC [2] [ng·h/mL] | half-life ([2]; read-out: T1/2 (α)) [min] | half-life ([2]; read-out: T1/2 (β)) [min] | MIC [3] [µg/mL] | MIC [4] [µg/mL] | MIC [5] [µg/mL] | MIC [6] [µg/mL] | MIC [7] [µg/mL] | MIC [8] [µg/mL] | MIC [9] [µg/mL] | MIC [10] [µg/mL] | MIC [11] [µg/mL] | further results
1 | CCc1c(N)nc(SCC2=C(C(=O)[O-])N3C(=O)C(NC(=O)/C(=N\OC(C)(C)C(=O)O)c4csc(N)n4)C3SC2)[n+](CC)c1N (stereo not shown) [Compound I-33] | 194000 | 79000 | 55000 | 36000 | 21000 | 13000 | 7000 | 1200 | 30500 | 2 | 24 | 2 (≈ 3 µM) | 0.13 (≈ 0.195 µM) | 4 (≈ 6.01 µM) | 0.13 (≈ 0.195 µM) | 0.5 (≈ 0.751 µM) | 0.25 (≈ 0.375 µM) | 0.5 (≈ 0.751 µM) | > 128 | 128 (≈ 192 µM) | MIC [12]: 0.063 µg/mL (≈ 0.0946 µM); MIC [13]: 0.13 µg/mL (≈ 0.195 µM); MIC [14]: 0.5 µg/mL (≈ 0.751 µM); MIC [15]: 0.13 µg/mL (≈ 0.195 µM); MIC [16]: 2 µg/mL (≈ 3 µM); MIC [17]: 4 µg/mL (≈ 6.01 µM); MIC [18]: 0.031 µg/mL (≈ 0.0466 µM); MIC [19]: 2 µg/mL (≈ 3 µM); MIC [20]: ≤ 0.008 µg/mL; MIC [21]: 4 µg/mL (≈ 6.01 µM); MIC [22]: 4 µg/mL (≈ 6.01 µM); MIC [23]: ≤ 0.008 µg/mL; MIC [24]: 16 µg/mL (≈ 24 µM); MIC [25]: 0.063 µg/mL (≈ 0.0946 µM); MIC [26]: 0.13 µg/mL (≈ 0.195 µM)
2 | Cc1c(N)nc(SCC2=C(C(=O)[O-])N3C(=O)C(NC(=O)/C(=N\OC(C)(C)C(=O)O)c4csc(N)n4)C3SC2)[n+](N)c1N (stereo not shown) [Compound I-34] | 181000 | 89000 | 68000 | 47000 | 31000 | 15000 | 7800 | 1200 | 37200 | 1 | 21 | 2 (≈ 3.13 µM) | 0.063 (≈ 0.0986 µM) | 2 (≈ 3.13 µM) | 0.063 (≈ 0.0986 µM) | 0.13 (≈ 0.204 µM) | 0.063 (≈ 0.0986 µM) | 0.13 (≈ 0.204 µM) | > 128 | 128 (≈ 200 µM) | MIC [12]: 0.031 µg/mL (≈ 0.0485 µM); MIC [13]: 0.13 µg/mL (≈ 0.204 µM); MIC [14]: 0.5 µg/mL (≈ 0.783 µM); MIC [15]: 0.063 µg/mL (≈ 0.0986 µM); MIC [16]: 2 µg/mL (≈ 3.13 µM); MIC [17]: 2 µg/mL (≈ 3.13 µM); MIC [18]: 0.016 µg/mL (≈ 0.0251 µM); MIC [19]: 2 µg/mL (≈ 3.13 µM); MIC [20]: ≤ 0.008 µg/mL; MIC [21]: 1 µg/mL (≈ 1.57 µM); MIC [22]: 4 µg/mL (≈ 6.26 µM); MIC [23]: ≤ 0.008 µg/mL; MIC [24]: 4 µg/mL (≈ 6.26 µM); MIC [25]: 0.031 µg/mL (≈ 0.0485 µM); MIC [26]: 0.063 µg/mL (≈ 0.0986 µM)
